Assay results as given in US20110105389A1 (priority 2009, published 2011).
pIC50, pKi: −log10 of the molar value.

molecular target: T1, human ghrelin receptor (GRLN, growth hormone secretagogue receptor, hGHS-R1a) (Homo sapiens, UniProt Q92847); experiment: Competitive radioligand binding assay (ghrelin receptor), Method B1; settings: Ghrelin receptor binding activity, Method B1
T1 construct: purchased PerkinElmer BioSignal #RBHGHSM, lot#1887; host or cells: HEK-293 cells, stably transfected (membranes)
Experimental: Multiscreen Harvest plates-GF/C (Millipore, #MAHFC1H60) • 4. […] Bottom seal (Millipore, #MATAH0P00) • 7. […] Binding Buffer: 25 mM Hepes (pH 7.4), 1 mM CaCl2, 5 mM MgCl2. 2.5 mM EDTA, 0.4% BSA
Competition experiments were performed in a 300 μl filtration assay format. • 1. 220 μL of membranes diluted in binding buffer • 2. 40 μL of compound diluted in binding buffer • 3.
Compounds were provided frozen on dry ice at a stock concentration of 10 mM diluted in 100% DMSO and stored at −80° C. until the day of testing. On the test day, compounds were allowed to thaw at rt overnight and then diluted in assay buffer according to the desired test concentrations. Under these conditions, the maximal final DMSO concentration in the assay was 0.1%.
Plates were sealed with TopSeal-A, vortexed gently and incubated at rt for 30 min. The reaction was arrested by filtering samples through Multiscreen Harvest plates (pre-soaked in 0.5% polyethyleneimine) using a Tomtec Harvester, washed 9 times with 500 μL of cold 50 mM Tris-HCl (pH 7.4, 4° C.), and then plates were air-dried in a fumehood for 30 min. A bottom seal was applied to the plates prior to the addition of 25 μL of MicroScint-0 to each well. Plates were than sealed with TopSeal-A and counted for 30 sec per well on a TopCount Microplate Scintillation and Luminescence Counter (PerkinElmer) using a count delay of 60 sec. Results were expressed as counts per minute (cpm).
Data were analyzed by GraphPad Prism (GraphPad Software, San Diego, Calif.) using a variable slope non-linear regression analysis. […] Dmax values were calculated using the following formula: […]

T1 sequence (Q92847 whole entry): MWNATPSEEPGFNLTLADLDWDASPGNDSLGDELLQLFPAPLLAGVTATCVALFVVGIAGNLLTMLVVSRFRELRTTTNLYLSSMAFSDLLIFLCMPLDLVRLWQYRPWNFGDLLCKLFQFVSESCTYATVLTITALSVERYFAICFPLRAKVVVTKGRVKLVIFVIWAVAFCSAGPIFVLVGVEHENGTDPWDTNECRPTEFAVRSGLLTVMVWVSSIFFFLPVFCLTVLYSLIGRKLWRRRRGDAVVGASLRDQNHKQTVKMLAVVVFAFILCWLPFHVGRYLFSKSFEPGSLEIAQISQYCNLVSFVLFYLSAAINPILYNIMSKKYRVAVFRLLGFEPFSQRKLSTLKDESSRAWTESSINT

| pIC50 | pKi | Structure (SMILES) |
| --- | --- | --- |
| 7.00 to 8.00 |  | CC(O)[C@H]1C(=O)N[C@H](Cc2ccc(F)cc2)C(=O)N[C@H](C)CCc2ccc(F)cc2O[C@H](C)CN[C@@H](C2(C)CC2)C(=O)N1C (stereo partly drawn) [Compound 1870] |
| 6.30 to 7.00 | 7.00 to 8.00 | CCC(C)[C@@H]1NCCOc2ccccc2/C=C/CNC(=O)[C@@H](Cc2ccncc2)NC(=O)[C@H](C(C)O)N(C)C1=O (stereo partly drawn) [Compound 1330] |
| 6.30 to 7.00 | 7.00 to 8.00 | CCC(C)[C@@H]1NCCOc2ccccc2/C=C/CNC(=O)[C@@H](Cc2c[nH]cn2)NC(=O)[C@H](C(C)O)N(C)C1=O (stereo partly drawn) [Compound 1329] |
| 7.00 to 8.00 |  | CC1CCc2ccccc2OCCNC(C(C)(C)C)C(=O)N(C)C(C(C)O)C(=O)NC(Cc2ccc(Cl)cc2)C(=O)N1 (stereo not drawn) [Compound 1800] |
|  | 7.00 to 8.00 | CCC(C)[C@H]1C(=O)N(C)[C@@H](C(C)O)C(=O)N[C@H](Cc2ccccc2)C(=O)NC/C=C/c2ccccc2OCCN1C (stereo partly drawn) [Compound 1323] |
| < 6.30 |  | CCC1CCc2ccc(F)cc2OC(C)CNC(CC)C(=O)N(C)C(C(C)O)C(=O)NC(Cc2ccccc2)C(=O)N1 (stereo not drawn) [Compound 1852] |
| 6.30 to 7.00 |  | CCC1CCc2ccc(F)cc2OC(C)CNC(C2(C)CC2)C(=O)N(C)C(C(C)O)C(=O)NC(Cc2c[nH]c3ccccc23)C(=O)N1 (stereo not drawn) [Compound 1706] |
| 6.30 to 7.00 | 6.30 to 7.00 | CCC(C)[C@@H]1N[C@H](C)COc2ccccc2CCCNC(=O)[C@@H](Cc2ccccc2)NC(=O)[C@H](C(C)O)N(C)C1=O (stereo partly drawn) [Compound 1347] |
| 6.30 to 7.00 |  | CC[C@@H]1CCc2c(cccc2C(F)(F)F)OCCN[C@@H](C(C)C)C(=O)N(C)[C@@H](C(C)O)C(=O)N[C@H](Cc2c[nH]c3ccccc23)C(=O)N1 (stereo partly drawn) [Compound 1891] |
| 6.30 to 7.00 |  | CC[C@@H]1CCc2c(C#N)cccc2OCCN[C@@H](C(C)C)C(=O)N(C)[C@@H](C(C)O)C(=O)N[C@H](Cc2ccccc2)C(=O)N1 (stereo partly drawn) [Compound 1889] |
| 6.30 to 7.00 |  | CC[C@@H]1CCc2c(C#N)cccc2OCCN[C@@H](C2(C)CC2)C(=O)N(C)[C@@H](C(C)O)C(=O)N[C@H](Cc2ccccc2)C(=O)N1 (stereo partly drawn) [Compound 1895] |
| 6.30 to 7.00 |  | CC[C@@H]1CCc2c(C#N)cccc2OCCN[C@@H](C(C)C)C(=O)N(C)[C@@H](C(C)O)C(=O)N[C@H](Cc2ccc(F)cc2)C(=O)N1 (stereo partly drawn) [Compound 1897] |
| 7.00 to 8.00 |  | CC(C)C1CCc2ccccc2OCCNC(C(C)C)C(=O)N(C)C(C(C)O)C(=O)NC(Cc2c[nH]c3ccccc23)C(=O)N1 (stereo not drawn) [Compound 1698] |
| 7.00 to 8.00 |  | CC[C@@H]1CCc2ccc(F)cc2OCCN[C@@H](C2(C)CC2)C(=O)N(C)[C@@H](C(C)O)C(=O)N[C@H](Cc2ccc(F)cc2)C(=O)N1 (stereo partly drawn) [Compound 1913] |
| < 6.30 |  | CC[C@@H]1CCc2c(cccc2C(F)(F)F)OCCN[C@@H](C2(C)CC2)C(=O)N(C)[C@@H](C(C)O)C(=O)N[C@H](Cc2ccccc2)C(=O)N1 (stereo partly drawn) [Compound 1912] |
| 8.00 to 9.00 |  | CCC(C)[C@@H]1NCCO[C@H]2CCCC[C@H]2CCCNC(=O)[C@@H](Cc2ccc(Cl)cc2)NC(=O)[C@H](C(C)O)N(C)C1=O (stereo partly drawn) [Compound 1715] |
| 6.30 to 7.00 |  | CC(C)[C@@H]1NCCOc2ccccc2CC[C@H](C(C)C)NC(=O)[C@@H](Cc2cccc(F)c2)NC(=O)[C@H](C(C)O)N(C)C1=O (stereo partly drawn) [Compound 1708] |
| 6.30 to 7.00 |  | CC(O)C1C(=O)NC(Cc2ccccc2)C(=O)NC(CC(F)(F)F)CCc2ccc(F)cc2OCCNC(C2(C)CC2)C(=O)N1C (stereo not drawn) [Compound 1921] |
| 8.00 to 9.00 |  | CCC(C)[C@@H]1NCCO[C@H]2CCC[C@H]2CCCNC(=O)[C@@H](Cc2ccc(Cl)cc2)NC(=O)[C@H](C(C)O)N(C)C1=O (stereo partly drawn) [Compound 1714] |

molecular target: T2, GHS-R1a receptor (HEK293 cells expressing GHS-R1a receptor) (Homo sapiens, UniProt Q92847); experiment: Fluorescence functional assay (ghrelin receptor), Method B2, agonist and antagonist mode; format: cell-based; settings: functional activity as an antagonist at the ghrelin receptor, Methods B2 and B3
T2 construct: host or cells: HEK293
Experimental: • 1. ImageTrak Epi-Fluorescence system (Perkin-Elmer) • 2. MultiDrop TiterTek • 3. CO2 incubators: 5% CO2, humidified, 37° C.
• 1. Hanks' BSS without phenol red (Life Technologies) • 2. Hepes buffer • 3. Probenecid (Sigma) • 4. […] Falcon cell culture 96-well black/clear bottom plates • 6. 0.05% trypsin-EDTA • 7. Cells: HEK293 cells expressing GHS-R1a receptor (Perkin-Elmer BioSignal) were grown in DMEM (Dulbecco's Modified Eagles Medium) with 10% FBS, 1% sodium pyruvate, 1% NEAA and 400 μg/mL geneticin • 8. […] [D-Lys^3]-GHRP-6 (reference antagonist, Phoenix #031-22) • 10. Assay buffer: HBSS-20 mM Hepes containing 2.5 mM probenecid and 0.1% BSA (bovine serum albumin); pH 7.4
Stock solutions of compounds (10 mM in 100% DMSO) were provided frozen on dry ice and stored at −80° C. prior to use. […] Assay plates were then prepared by appropriate dilution in assay buffer.
Typical Final Test Concentrations (N=10) for Test Compounds (agonist):
Typical Final Test Concentrations (N=10) for Test Compounds (antagonist):
Cells were maintained in culture as indicated above. The cells were harvested at a confluency of 70-90% the day before the experiment. Growth medium was removed and the cells rinsed briefly with PBS without Ca^+2 and Mg^+2. 0.05% Trypsin was added and the plates incubated at 37° C. for 5 min to detach the cells. DMEM medium supplemented with 10% FBS was added to inactivate the trypsin and determine the cell concentration. The inoculum was adjusted to a final concentration of 200 cells/μL and dispensed at 200 μL per well into a 96-well block plate. The plates were, incubated at 37° C. overnight.
The plates were removed from the incubator and the media removed by inversion of the plates. Calcium-3 dye, 50 μL, was loaded and then incubated for 1 h at 37° C. The plate was again inverted and then 25 μL of assay buffer added. The plates were then transferred to the ImageTrak system for analysis. For agonist testing, after reading for ten (10) sec, 25 μL of 2× test compound or control was injected into the assay plate. Fluorescence was monitored for an additional 50 sec. A reading was taken every two (2) seconds for a total of 30 readings per assay point.
For antagonist testing, after reading for ten (10) sec, 12.5 μL of 3× test compound or control was injected into the assay plate and allowed to react for three (3) min.
Concentration response curves were analyzed using GraphPad Prism (GraphPad Software, San Diego, Calif.) by non-linear regression analysis (sigmoidal dose-response). EC50 values are calculated using GraphPad.
Emax values were calculated using the following formula: […]
Concentration response curves were analyzed using GraphPad Prism (GraphPad Software, San Diego, Calif.) by non-linear regression analysis (sigmoidal dose-response). IC50 values are calculated using GraphPad.
Imax values were calculated using the following formula: […]

T2 sequence (Q92847 whole entry): as above

| Antagonist Activity | Structure (SMILES) |
| --- | --- |
| B (B = 1-10 nM) | CC(C)[C@@H]1NCCOc2cc(F)ccc2CC[C@@H](C)NC(=O)[C@@H](Cc2ccc(F)cc2)NC(=O)[C@H](C(C)O)N(C)C1=O (stereo partly drawn) [Compound 1464] |
| B (B = 1-10 nM) | CC(C)[C@@H]1NCCOc2ccccc2CC[C@@H](C)NC(=O)[C@@H]([C@H](C)c2ccccc2)NC(=O)[C@H](C(C)O)N(C)C1=O (stereo partly drawn) [Compound 1404] |
| B (B = 1-10 nM) | CC(C)[C@@H]1NCCOc2cc(F)ccc2CC[C@@H](C)NC(=O)[C@@H](Cc2c[nH]c3ccccc23)NC(=O)[C@H](C(C)O)N(C)C1=O (stereo partly drawn) [Compound 1455] |
| B (B = 1-10 nM) | CC(C)[C@@H]1NCCOc2ccc(F)cc2CC[C@@H](C)NC(=O)[C@@H](Cc2ccc(F)cc2)NC(=O)[C@H](C(C)O)N(C)C1=O (stereo partly drawn) [Compound 1436] |
| B (B = 1-10 nM) | CC(C)[C@@H]1NCCOc2cc(F)ccc2CCCNC(=O)[C@@H](Cc2cccc(F)c2)NC(=O)[C@H](C(C)O)N(C)C1=O (stereo partly drawn) [Compound 1366] |
| B (B = 1-10 nM) | CC(C)[C@@H]1NCCOc2ccc(F)cc2CC[C@@H](C)NC(=O)[C@@H](Cc2ccccc2)NC(=O)[C@H](C(C)O)N(C)C1=O (stereo partly drawn) [Compound 1380] |
| B (B = 1-10 nM) | CC(C)[C@@H]1NCCOc2ccccc2CC[C@@H](C)NC(=O)[C@@H](Cc2ccc(O)c(Cl)c2)NC(=O)[C@H](C(C)O)N(C)C1=O (stereo partly drawn) [Compound 1383] |
| A (A <1 nM) | CC(C)[C@@H]1NCCOc2ccccc2CC[C@@H](C)NC(=O)[C@@H](Cc2csc3ccccc23)NC(=O)[C@H](C(C)O)N(C)C1=O (stereo partly drawn) [Compound 1416] |
| C (C = 10-100 nM) | CC(C)[C@@H]1NCCOc2cc(F)ccc2CCCNC(=O)[C@@H](Cc2ccccc2)NC(=O)[C@H](C(C)O)N(C)C1=O (stereo partly drawn) [Compound 1363] |
| C (C = 10-100 nM) | CC(O)[C@H]1C(=O)N[C@H](Cc2ccccc2)C(=O)N[C@H](C)CCc2ccccc2OCCN[C@@H](C(C)(C)C)C(=O)N1C (stereo partly drawn) [Compound 1370] |
| C (C = 10-100 nM) | CC(O)[C@H]1C(=O)N[C@H](Cc2c[nH]c3ccccc23)C(=O)N[C@H](C)CCc2cc(F)ccc2OCCN[C@@H](C2CC2)C(=O)N1C (stereo partly drawn) [Compound 1442] |
| B (B = 1-10 nM) | CC(C)[C@@H]1NCCOc2ccccc2CC[C@@H](C(F)(F)F)NC(=O)[C@@H](Cc2ccccc2)NC(=O)[C@H](C(C)O)N(C)C1=O (stereo partly drawn) [Compound 1402] |
| B (B = 1-10 nM) | CC1CCc2ccccc2OCCNC(C(C)C)C(=O)N(C)C(C(C)O)C(=O)NC(Cc2ccccc2O)C(=O)N1 (stereo not drawn) [Compound 1401] |
| B (B = 1-10 nM) | CC(C)[C@@H]1NCCOc2ccccc2CC[C@@H](C)NC(=O)[C@@H](Cc2ccccc2)NC(=O)[C@H](C(C)O)N(C)C1=O (stereo partly drawn) [Compound 1361] |
| D (D = 100-500 nM) | CCC[C@@H]1NCCOc2ccccc2CC[C@@H](C)NC(=O)[C@@H](Cc2ccccc2)NC(=O)[C@H](C(C)O)N(C)C1=O (stereo partly drawn) [Compound 1394] |
| C (C = 10-100 nM) | CCC(C)[C@@H]1NCCOc2ccccc2/C=C/CNC(=O)[C@@H](Cc2cccc(O)c2)NC(=O)[C@H](C(C)O)N(C)C1=O (stereo partly drawn) [Compound 1351] |
| B (B = 1-10 nM) | COc1cccc(C[C@H]2NC(=O)[C@H](C(C)O)N(C)C(=O)[C@H](C(C)C)NCCOc3cccc(F)c3CC[C@@H](C)NC2=O)c1 (stereo partly drawn) [Compound 1446] |
